Measured values published in ChEMBL document CHEMBL1201862, “PubChem BioAssay data set” (2004).
Calls of active or inactive are those of the source.

Columns and labels:
[1] = target: 5-hydroxytryptamine receptor 1A (Homo sapiens, UniProt P08908); type: functional
[2] = HEK293T cytotoxicity, dose response, cytotoxicity control for miR-122 modulator project, cell-based, activator set, cherry-pick (AID 720690); type: functional;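 further: HEK293T human cells scored for general mammalian cytotoxicity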
[3] = HEK293T cytotoxicity, dose response, cytotoxicity control for miR-122 modulator project, cell-based, inhibitor set, cherry-pick, set 2 (AID 720697); type: functional
Vero [4] = assay: West Nile virus antiviral activity, cell-based, CPE readout (AID 1621); type: functional; settings: Chlorocebus sabaeus
Vero [5] = assay: host cell cytotoxicity of antiviral hits, dose response, cytotoxicity control for West Nile virus antiviral project, secondary assay (AID 1650); type: functional; settings: Chlorocebus sabaeus
[6] = cytotoxicity toward NIH3T3 fibroblasts, dose response, counter-screen, cell-based, ATP luminescence, mouse fibroblasts (AID 2010); type: functional;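 further: cells exposed to compound for about 90 hours before reading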
[7] = inhibitors of intracellular T. cruzi replication, confirmation, NIH3T3 host cells, beta-gal luminescence (AID 2044); type: functional, cell-based;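 further: intracellular parasites grown in NIH/3T3 mouse fibroblasts as host cells; luminescent beta-galactosidase reporter signal from transgenic T. cruzi replicating inside host cells; inhibitors lower the luminescence signal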
[8] = M. tuberculosis growth inhibition, HTS (AID 449762); type: functional
[9] = P. falciparum Dd2 growth inhibitors, dose response, SYBR Green, dry powder samples (AID 1159566); type: functional, cell-based;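 further: potency for growth inhibition with lower SYBR green DNA signal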
[10] = P. falciparum Dd2 growth inhibitors, dose response, SYBR Green, cherry-picked samples (AID 1159567); type: functional, cell-based
[11] = P. falciparum ATP4 D1247Y mutant growth inhibitors, dose response, NITD609-resistant line, SYBR Green, dry powder (AID 1159571); type: functional, cell-based;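 further: parasites synchronized at ring stage by sorbitol before testing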
[12] = P. falciparum 3D7-ScDHODH growth inhibitors, dose response, SYBR Green, dry powder samples (AID 1159570); type: functional, cell-based;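 further: parasite growth measured after 72 hours of compound exposure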
[13] = HepG2 cell cytotoxicity, dose response, cytotoxicity control, cherry-picked samples (AID 1159577); type: functional, cell-based
[14] = Dose-response inhibition of insulin secretion in a rat insulinoma line at 5 mM glucose (AID 1117331); type: functional, cell-based; settings: INS-1E
[15] = Glucagon-like peptide 1 release potency, NCI-H716 cell line, dose-response, half-maximal inhibitory concentration (AID 1117344); type: functional, cell-based
P388 = assay: cells; type: functional; settings: Mus musculus
[16] = half-maximal inhibitory concentration for glucagon-like peptide-1 release, STC-1 cell line, dose-response (AID 1117345); type: functional, cell-based
SN12K1 = assay: cells; type: functional; settings: Homo sapiens
P388/ADR = assay: cells; type: functional; settings: Mus musculus
[17] = HeLa 2N DNA content increase, dose response, cell-based, IC50 (AID 1117349); type: functional
[18] = HeLa 4N DNA content increase, dose response, cell-based, IC50 (AID 1117351); type: functional

Chain of 5-hydroxytryptamine receptor 1A (P08908 whole entry): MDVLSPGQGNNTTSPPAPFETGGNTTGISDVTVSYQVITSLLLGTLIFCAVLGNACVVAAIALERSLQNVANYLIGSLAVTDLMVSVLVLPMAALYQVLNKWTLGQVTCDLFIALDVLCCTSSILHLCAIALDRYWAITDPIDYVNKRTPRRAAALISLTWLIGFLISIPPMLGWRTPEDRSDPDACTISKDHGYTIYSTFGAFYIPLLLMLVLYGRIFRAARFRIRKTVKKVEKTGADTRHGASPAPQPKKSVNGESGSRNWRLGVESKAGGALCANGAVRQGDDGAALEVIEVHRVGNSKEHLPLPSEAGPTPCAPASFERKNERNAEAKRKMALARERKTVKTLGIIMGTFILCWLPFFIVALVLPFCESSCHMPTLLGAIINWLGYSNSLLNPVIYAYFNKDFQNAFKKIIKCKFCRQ

## CCOC(=O)C1CCN(C(c2cccnc2)c2c(NC(=O)c3ccco3)sc(C)c2C)CC1 (configuration not stated)
[1]
  EC50: > 50 µM (not active)
[2]
  AC50: 29.4 µM (active)
[3]
  AC50: 1.05 µM (active)

## CN1CCc2ccccc2C1Cc1ccccc1NC(=O)c1sc2ccccc2c1Cl (configuration not stated)
Vero [4]
  IC50: 41.2 µM (active)
Vero [5]
  CC50: > 100 µM (active)
[6]
  EC50: > 60 µM (not active)
[7]
  EC50: 2.73 µM (active)

## Fc1ccc(N/N=C2/CC(c3ccccc3)Oc3ccccc32)c(F)c1 (configuration not stated)
[8]
  IC50: > 100 µM (active)

## O=C(c1cccc(F)c1)N1CC(=O)N2[C@H](C1)[C@@H](c1ccc(-c3cccnc3)cc1)[C@@H]2CO
[9]
  AC50: 0.088 µM (active)
[10]
  AC50: 0.331 µM (active)
[11]
  AC50: 0.0729 µM (active)
[12]
  AC50: 0.151 µM (active)

## O=C(C1CC1)N1CC(=O)N2[C@H](C1)[C@@H](c1ccc(C#CCc3ccccc3)cc1)[C@@H]2CO
[13]
  AC50: 35.5 µM (active)
[10]
  AC50: 9.21 µM (active)

## O=C(CCN1CCN2CCCC2C1)N1c2ccccc2Sc2ccc(Cl)cc21 (configuration not stated) [AZACLORZINE]
[14]
  IC50: 16.8 µM (inactive)

## CCCCCCCCCCCCCCCCCCOCC(O)CO (configuration not stated) [BATILOL]
[15]
  IC50: > 40 µM (inactive)
P388
  GI50: 6.65 µM (inactive)
[16]
  IC50: > 40 µM (inactive)
SN12K1
  GI50: 22.5 µM (inactive)
P388/ADR
  GI50: 9.82 µM (inactive)

## CCCOc1ccc2[nH]c(NC(=O)OC)nc2c1 [OXIBENDAZOLE]
[17]
  IC50: 0.0622 µM (active)
[18]
  IC50: 0.0567 µM (active)
